Patent US6372493B1, “Hormone-secreting cells maintained in long-term culture” (Pacific Biomedical Research, Inc. [Cell Mart, Inc.], priority 1991, dated 2002)

Columns and labels:
[1] = system: pancreas cells in long-term culture; assay: Glucose-stimulated insulin secretion, pancreas cells generation 47, frozen/thawed or not (Example 17); type: cell-based, human
Experimental: The pancreas cell cultures described in Example 16 were passaged approximately every 3-5 days through generation 47. Passaging was done by placing 0.5-1.0 ml of cell suspension into 10 ml fresh medium in a flask. Each flask was flooded with medical blood gas mixture (supra), sealed, and maintained in an incubator at 37° C. Typically, each flask was flooded with fresh gas every other day. At passage 47, the cells had been in continuous culture for 9.5 months.
A portion of the pancreas cells at generation 47 were frozen according to the method described in Example 15 using cryopreservative A. The cells were stored frozen for 1 day, after which they were thawed according to the method described in Example 15.
The thawed cells and cells from generation 47 which had not been frozen were placed in DMSS medium and centrifuged at 1070 rpm for 5 minutes. The pellets were washed and resuspended in 30 ml of Medium PDM (Dulbecco's salt solution, phosphate buffered, with MgSO4 (no MgCl2), plus 2% BSA Fraction V), final osmolality adjusted to 272 mOsm) at 37°.
The cells were incubated 30 minutes at 37°, then centrifuged and resuspended as above. Cell count and viability were determined by Trypan blue exclusion.
The cells were then centrifuged and resuspended in a base medium consisting of 3 parts Medium PDM (supra) and 1 part DMSS, as defined in Example 6 above.

[2] = system: Human pancreas cell cultures, 55 generations; assay: Time course of insulin secretion in response to glucose (Example 18); type: cell-based
Experimental: Human pancreas cell cultures from Example 16 were maintained in continuous culture through 55 generations, at which time they had been in culture for 12 months.
Two hours prior to the experiment, the cells were centrifuged at 1070 rpm for 5 minutes and then resuspended in glucose-poor medium consisting of 1 part DMSS plus 6 parts PDM. The cells were incubated in glucose-poor medium (glucose-starved) at a concentration of about 1.5×10^6 cells/ml in 10 ml culture flasks for two hours at 37°.
The cells were then centrifuged and resuspended in the experimental medium consisting of one part DMSS and six parts PDM. The glucose concentration in the experimental medium alone was 1.1 mM. To this medium was added glucose in the concentrations shown in Table 12 below, and the cells were incubated for various times.

O=C[C@H](O)[C@@H](O)[C@H](O)[C@H](O)CO [glucose, D(+)glucose]
Insulin secreted ([1]; pg 47, glucose total 1 mM, 1.5 or 3 hours): 92 μIU insulin secreted/ml/10,000
Insulin secreted ([1]; pg 47, glucose total 2 mM): 100 μIU insulin secreted/ml/10,000
Insulin secreted ([1]; pg 47, glucose total 6 mM): 111 μIU insulin secreted/ml/10,000
Insulin secreted ([1]; pg 47, glucose total 11 mM): 117 μIU insulin secreted/ml/10,000
Insulin secreted ([1]; pg 47, glucose total 16 mM): 129 μIU insulin secreted/ml/10,000
Insulin secreted ([1]; pg 47, glucose total 21 mM): 116 μIU insulin secreted/ml/10,000
Insulin secreted ([1]; pg47 frozen/thawed, glucose total 1 mM): 99 μIU insulin secreted/ml/10,000
Insulin secreted ([1]; pg47 frozen/thawed, glucose total 2 mM): 105 μIU insulin secreted/ml/10,000
Insulin secreted ([1]; pg47 frozen/thawed, glucose total 6 mM): 114 μIU insulin secreted/ml/10,000
Insulin secreted ([1]; pg47 frozen/thawed, glucose total 11 mM): 128 μIU insulin secreted/ml/10,000
Insulin secreted ([1]; pg47 frozen/thawed, glucose total 16 mM): 125 μIU insulin secreted/ml/10,000
Insulin secreted ([1]; pg47 frozen/thawed, glucose total 21 mM): 124 μIU insulin secreted/ml/10,000
Insulin secreted ([2]; 1 mM glucose added, 1 hr): 275 μIU Insulin secreted/1.5 milli
Insulin secreted ([2]; 1 mM glucose added, 2 hr): 363 μIU Insulin secreted/1.5 milli
Insulin secreted ([2]; 1 mM glucose added, 3 hr): 451 μIU Insulin secreted/1.5 milli
Insulin secreted ([2]; 1 mM glucose added, 5 hr): 564 μIU Insulin secreted/1.5 milli
Insulin secreted ([2]; 1 mM glucose added, 7 hr): 582 μIU Insulin secreted/1.5 milli
Insulin secreted ([2]; 1 mM glucose added, 24 hr): 812 μIU Insulin secreted/1.5 milli
Insulin secreted ([2]; 5.6 mM glucose added, 1 hr): 3413 μIU Insulin secreted/1.5 milli
Insulin secreted ([2]; 5.6 mM glucose added, 2 hr): 982 μIU Insulin secreted/1.5 milli
Insulin secreted ([2]; 5.6 mM glucose added, 3 hr): 999 μIU Insulin secreted/1.5 milli
Insulin secreted ([2]; 5.6 mM glucose added, 5 hr): 2383 μIU Insulin secreted/1.5 milli
Insulin secreted ([2]; 5.6 mM glucose added, 7 hr): 2718 μIU Insulin secreted/1.5 milli
Insulin secreted ([2]; 5.6 mM glucose added, 24 hr): 2760 μIU Insulin secreted/1.5 milli
Insulin secreted ([2]; 11.0 mM glucose added, 1 hr): 3376 μIU Insulin secreted/1.5 milli
Insulin secreted ([2]; 11.0 mM glucose added, 2 hr): 1768 μIU Insulin secreted/1.5 milli
Insulin secreted ([2]; 11.0 mM glucose added, 3 hr): 2220 μIU Insulin secreted/1.5 milli
Insulin secreted ([2]; 11.0 mM glucose added, 5 hr): 1184 μIU Insulin secreted/1.5 milli
Insulin secreted ([2]; 11.0 mM glucose added, 7 hr): 3202 μIU Insulin secreted/1.5 milli
Insulin secreted ([2]; 11.0 mM glucose added, 24 hr): 1276 μIU Insulin secreted/1.5 milli
Insulin secreted ([2]; 16.5 mM glucose added, 1 hr): 3716 μIU Insulin secreted/1.5 milli
Insulin secreted ([2]; 16.5 mM glucose added, 2 hr): 2415 μIU Insulin secreted/1.5 milli
Insulin secreted ([2]; 16.5 mM glucose added, 3 hr): 2450 μIU Insulin secreted/1.5 milli
Insulin secreted ([2]; 16.5 mM glucose added, 5 hr): 2589 μIU Insulin secreted/1.5 milli
Insulin secreted ([2]; 16.5 mM glucose added, 7 hr): 4039 μIU Insulin secreted/1.5 milli
Insulin secreted ([2]; 16.5 mM glucose added, 24 hr): 2099 μIU Insulin secreted/1.5 milli
Insulin secreted ([2]; 22 mM glucose added, 1 hr): 2538 μIU Insulin secreted/1.5 milli
Insulin secreted ([2]; 22 mM glucose added, 2 hr): 1845 μIU Insulin secreted/1.5 milli
Insulin secreted ([2]; 22 mM glucose added, 3 hr): 2066 μIU Insulin secreted/1.5 milli
Insulin secreted ([2]; 22 mM glucose added, 5 hr): 1722 μIU Insulin secreted/1.5 milli
Insulin secreted ([2]; 22 mM glucose added, 7 hr): 1320 μIU Insulin secreted/1.5 milli
Insulin secreted ([2]; 22 mM glucose added, 24 hr): 989 μIU Insulin secreted/1.5 milli
Insulin secreted ([2]; 33 mM glucose added, 1 hr): 972 μIU Insulin secreted/1.5 milli
Insulin secreted ([2]; 33 mM glucose added, 2 hr): 345 μIU Insulin secreted/1.5 milli
Insulin secreted ([2]; 33 mM glucose added, 3 hr): 446 μIU Insulin secreted/1.5 milli
Insulin secreted ([2]; 33 mM glucose added, 5 hr): 657 μIU Insulin secreted/1.5 milli
Insulin secreted ([2]; 33 mM glucose added, 7 hr): 1109 μIU Insulin secreted/1.5 milli
Insulin secreted ([2]; 33 mM glucose added, 24 hr): 1073 μIU Insulin secreted/1.5 milli
glucose concentration of maximal response ([2]; glucose-starved cells, 1 to 24 hr): 16.5 mM
